Some test systems named below: LOX IMVI melanoma; NCI-H226 lung; ACHN renal; NCI-H23 lung; SNB-75 CNS; RPMI-8226 leukemia; SN12C renal; IGROV1 ovarian; OVCAR-8 ovarian; MALME-3M melanoma.
What all share (test): NCI-60 cell line screen, 48 h

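Interpolation was linear, between the two tested concentrations surrounding the appropriate level; five concentrations were tested over 48 hours in 96-well plates. GI50 = concentration required for 50% inhibition of growth. Definition used: TGI = concentration required for complete inhibition of growth.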

For the molecule `CC(=O)NNC(=O)c1nn(-c2ccc(Cl)cc2)cc1OC(C)=O`, the GI50 in the assay with LOX IMVI melanoma was 22.5 µM; in the assay with NCI-H226 lung, 22.1 µM; with ACHN renal it was 15.3 µM; with NCI-H23 lung, 22.2 µM; in the assay on SNB-75 CNS, over 66.5 µM; with RPMI-8226 leukemia it was 12.1 µM. In addition, the GI50 in the assay with SN12C renal is 20.8 µM; with IGROV1 ovarian, 21.5 µM; with OVCAR-8 ovarian it was 22.3 µM; with MALME-3M melanoma it was 25.7 µM. In addition, the TGI was over 100 µM with LOX IMVI melanoma; over 100 µM in the assay on NCI-H226 lung; over 66.6 µM in the assay on ACHN renal; 97.2 µM in the assay on NCI-H23 lung; 99.7 µM in the assay on SNB-75 CNS; 64.3 µM with RPMI-8226 leukemia. The TGI was over 100 µM in the assay on SN12C renal, over 100 µM in the assay with IGROV1 ovarian, over 100 µM with OVCAR-8 ovarian and over 91.4 µM in the assay with MALME-3M melanoma.
Regarding `CNC1=C(C)C(=O)C(C)=C(C(C)(C)CC(=O)n2cc(F)c(=O)[nH]c2=O)C1=O`, the TGI in the assay on LOX IMVI melanoma, in the assay with NCI-H226 lung, in the assay with ACHN renal, in the assay on NCI-H23 lung, with SNB-75 CNS and with RPMI-8226 leukemia was over 100 µM each time. In addition, the TGI with SN12C renal, with IGROV1 ovarian, with OVCAR-8 ovarian and in the assay on MALME-3M melanoma was over 100 µM in each case.

Values taken from PubChem BioAssay (NCI).
